Patent publication US20150011528A1, “PHENYLIMIDE-CONTAINING BENZOTHIAZOLE DERIVATIVE OF ITS SALT AND PHARMACEUTICAL COMPOSITION COMPRISING THE SAME” (YUHAN CORPORATION, priority 2011, published 2015)

Columns and labels:
Type in all cases: cell-based
A549 cells = test: Cell Migration Assay (transwell, laminin); conditions: Homo sapiens, laminin 10 μg/mL in lower well, test compounds 0.39˜100 μM, 6 hours at 37° C.
Method: Cell migration was measured with a 24-well transwell having a polycarbonate membrane (8.0 μm pore size, Costar) at the bottom of the upper chamber. Each lower well was treated with laminin (10 μg/mL) and test compounds (0.39˜100 μM) along with a serum-free RPMI1640 medium. A549 cells (Korean Cell Line Bank) were suspended in a serum-free RPMI1640 medium at a concentration of 1×10^6 cells/mL and then the test compounds were added thereto at the indicated concentrations. Each resulting solution (100 μL) was added to the upper chamber. The cells were cultured at 37° C. for 6 hours in a CO2 incubator. The upper chamber was taken out and then the cells were fixed with PBS containing 70% methyl alcohol for 10 minutes, followed by washing with PBS twice. The cells were stained with hematoxylin (Sigma) for 10 minutes and then washed with distilled water. The non-migrated cells were removed from the upper portion of the polycarbonate membrane with a cotton swab. The membranes were excised and separated from the chamber, and then mounted to a slide using a gel mount reagent (Biomeda, USA). The migrated cells (attached to the lower face of the membrane) were counted at three randomly selected sites under a microscope (×20). The cell counting was performed with the Image J program. From the counted cell numbers, each IC50 value was calculated by non-linear regression curve fit using the “GraphPad Prism” program.
The cells are pulled by laminin residing in the lower chamber and then passed through the polycarbonate membrane, so as to attach to the lower face of the membrane.

[1] = target: T1, interaction between the KRS protein and the laminin receptor (LR) (Homo sapiens, UniProt Q15046); test: Yeast Two Hybrid inhibition of the interaction between the KRS protein and the laminin receptor (LR); conditions: 1 μL of 20 mM DMSO solution per 200 μL culture; 30° C., 6 days; absorbance 540 nm; non-treated control = 100%
T1 construct: expressed in transfected cells; host or cells: yeast EGY/SH cells
T1 sequence (Q15046 whole entry): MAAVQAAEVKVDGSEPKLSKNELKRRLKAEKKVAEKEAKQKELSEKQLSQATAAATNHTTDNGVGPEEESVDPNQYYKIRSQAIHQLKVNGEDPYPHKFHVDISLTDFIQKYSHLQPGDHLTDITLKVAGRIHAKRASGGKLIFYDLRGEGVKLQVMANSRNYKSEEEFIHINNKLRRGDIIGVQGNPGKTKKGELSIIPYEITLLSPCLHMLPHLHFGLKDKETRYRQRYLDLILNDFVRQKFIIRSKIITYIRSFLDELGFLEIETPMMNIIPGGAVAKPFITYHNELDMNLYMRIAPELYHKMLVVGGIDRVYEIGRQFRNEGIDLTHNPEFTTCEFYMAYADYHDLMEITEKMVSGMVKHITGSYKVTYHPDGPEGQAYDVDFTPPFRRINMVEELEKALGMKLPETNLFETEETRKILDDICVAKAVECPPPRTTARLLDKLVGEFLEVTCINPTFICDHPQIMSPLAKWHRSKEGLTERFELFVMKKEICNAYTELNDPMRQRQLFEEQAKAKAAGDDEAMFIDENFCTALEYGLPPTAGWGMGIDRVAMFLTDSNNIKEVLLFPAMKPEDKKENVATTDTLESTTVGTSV
Method: The inhibitory activity against the interaction between the KRS protein and the laminin receptor (LR) was evaluated according to the Yeast Two Hybrid method described in WO2011/056021. According to the disclosures of WO2011/056021, we prepared a vector obtained by cloning the KRS gene in the LexA vector (Clontech) and a vector obtained by cloning the LR gene in the B42 vector (Clontech). The yeast cells, i.e., EGY/SH cells were co-transformed with the LexA-KRS vector and the B42-LR vector. The co-transformation was carried out using the Yeastmaker yeast transformation system2 kit (Clontech), according to the manufacturer's instruction. […] The cultured yeast cells were diluted with the said galactose medium, until the absorbance at 540 nm attains to about 0.15 to 0.2. The diluted culture (200 μL), containing the yeast cells, was added to each well of a 96-well plate. Each test compound was dissolved in dimethyl sulfoxide at a concentration of 20 mM and then the resulting solutions (1 μL) were added to each well. The plate was cultured at 30° C. for 6 days and then the absorbance of the each well was measured at 540 nm.
(§1) And also, specificity of the inhibitory activity was evaluated, using the yeast cells cotransformed with the LexA-KRS vector and the B42-AIMP2 vector; and the yeast cells co-transformed with the LexA-KRS vector and the B42-AIMP3 vector, which were respectively prepared according to WO2011/056021. The co-transformation was carried out using the Yeastmaker yeast transformation system2 kit (Clontech), according to the manufacturer's instruction. […] The cultured yeast cells were diluted with the said galactose medium, until the absorbance at 540 nm attains to about 0.15 to 0.2. The diluted culture (200 μL), containing the yeast cells, was added to each well of a 96-well plate. Each test compound was dissolved in dimethyl sulfoxide at a concentration of 20 mM and then the resulting solutions (1 μL) were added to each well. The plate was cultured at 30° C. for 6 days and then the absorbance of each well was measured at 540 nm. The respective yeast cell proliferation rates (%) in the treated samples were calculated in comparison with those of the non-treated control (100%) and the results thereof are shown in Table 1 below.
When KRS is bound to LR, the trans-activation domain is come close to the DNA-binding domain and the genes for synthesizing essential amino acids are expressed, which leads to normal growth of the transformed yeasts, thereby increasing the absorbance.

[2] = target: T2, binding between KRS and AIMP2 (Homo sapiens, UniProt Q15046); test: Yeast Two Hybrid specificity test, LexA-KRS / B42-AIMP2 co-transformed yeast cells; conditions: 1 μL of 20 mM DMSO solution per 200 μL culture; 30° C., 6 days; absorbance 540 nm; non-treated control = 100%
T2 construct: expressed in transfected cells; host or cells: yeast cells (co-transformed)
T2 sequence (Q15046 whole entry): as above
Method: as §1

[3] = target: T3, binding between KRS and AIMP3 (Homo sapiens, UniProt Q15046); test: Yeast Two Hybrid specificity test, LexA-KRS / B42-AIMP3 co-transformed yeast cells; conditions: 1 μL of 20 mM DMSO solution per 200 μL culture; 30° C., 6 days; absorbance 540 nm; non-treated control = 100%
T3 construct: expressed in transfected cells; host or cells: yeast cells (co-transformed)
T3 sequence (Q15046 whole entry): as above
Method: as §1

**Q.** With `CC(C(=O)O)n1c(=NC(=O)c2cccc(C(F)(F)F)c2)sc2c(F)cc(F)cc21` (stereo not drawn) [Example 458, 2-(5,7-difluoro-2-((3-(trifluoromethyl)benzoyl)imino)benzo[d]thiazol-3(2H)-yl)propionic acid] as the compound, how does the IC50 (A549 cells) read?
**A.** 61 µM

**Q.** What about the “Yeast cell proliferation rates KRS-LR (%)” value [1] of the same compound?
**A.** 30.8%

**Q.** And the “Yeast cell proliferation rates KRS-AIMP2 (%)” value [2]?
**A.** 96.4%

**Q.** And the “Yeast cell proliferation rates KRS-AIMP3 (%)” value [3]?
**A.** 100.0%

**Q.** With `Cc1ccc2c(sc(=NC(=O)c3cccc(Cl)c3)n2C(C)C(=O)O)c1F` (stereo not drawn) [Example 424, 2-(2-((3-chlorobenzoyl)imino)-7-fluoro-6-methylbenzo[d]thiazol-3(2H)-yl)propionic acid] as the compound, how does the IC50 (A549 cells) read?
**A.** 78 µM

**Q.** And the “Yeast cell proliferation rates KRS-LR (%)” value [1]?
**A.** 15.6%

**Q.** What about the “Yeast cell proliferation rates KRS-AIMP2 (%)” value [2] of the same compound?
**A.** 99.9%

**Q.** What about the “Yeast cell proliferation rates KRS-AIMP3 (%)” value [3] of the same compound?
**A.** 104.6%

**Q.** Which results are given for `Cc1ccc(C(=O)N=c2sc3c(Cl)cccc3n2C(C)C(=O)O)cc1` (stereo not drawn) [Example 109, 2-[7-chloro-2-(4-methylbenzoylimino)benzo[d]thiazol-3(2H)-yl]propionic acid]?
**A.** IC50 (A549 cells): 57 µM; Yeast cell proliferation rates KRS-LR (%) [1]: 30.2%; Yeast cell proliferation rates KRS-AIMP2 (%) [2]: 102.0%; Yeast cell proliferation rates KRS-AIMP3 (%) [3]: 98.2%

**Q.** For `CCC(C(=O)O)n1c(=NC(=O)c2ccc(C)cc2)sc2cc(C(F)(F)F)ccc21` (stereo not drawn) [Example 155, 2-[2-(4-methylbenzoylimino)-6-(trifluoromethyl)benzo[d]thiazol-3(2H)-yl]butanoic acid], which IC50 (A549 cells) is on record?
**A.** 16.7 µM

**Q.** What about the “Yeast cell proliferation rates KRS-LR (%)” value [1] of the same compound?
**A.** 29.7%

**Q.** And the “Yeast cell proliferation rates KRS-AIMP2 (%)” value [2]?
**A.** 102.4%

**Q.** And the “Yeast cell proliferation rates KRS-AIMP3 (%)” value [3]?
**A.** 100.0%

**Q.** With `CCC(C(=O)O)n1c(=NC(=O)c2cccc(Cl)c2)sc2c(F)c(Cl)ccc21` (stereo not drawn) [Example 386, 2-(6-chloro-2-((3-chlorobenzoyl)imino)-7-fluorobenzo[d]thiazol-3(2H)-yl)butanoic acid] as the compound, how does the IC50 (A549 cells) read?
**A.** 8.3 µM

**Q.** What about the “Yeast cell proliferation rates KRS-LR (%)” value [1] of the same compound?
**A.** 11.2%

**Q.** What about the “Yeast cell proliferation rates KRS-AIMP2 (%)” value [2] of the same compound?
**A.** 103.9%

**Q.** And the “Yeast cell proliferation rates KRS-AIMP3 (%)” value [3]?
**A.** 106.3%

**Q.** For `CCC(C(=O)O)n1c(=NC(=O)c2cccc(Cl)c2)sc2c(F)c(F)ccc21` (stereo not drawn) [Example 338, 2-(2-((3-chlorobenzoyl)imino)-6,7-difluorobenzo[d]thiazol-3(2H)-yl)butanoic acid], which IC50 (A549 cells) is on record?
**A.** 81.3 µM

**Q.** And the “Yeast cell proliferation rates KRS-LR (%)” value [1]?
**A.** 12.6%

**Q.** And the “Yeast cell proliferation rates KRS-AIMP2 (%)” value [2]?
**A.** 104.0%

**Q.** What about the “Yeast cell proliferation rates KRS-AIMP3 (%)” value [3] of the same compound?
**A.** 107.2%

**Q.** Which “Yeast cell proliferation rates KRS-LR (%)” value [1] does the source give for `CCC(C(=O)O)n1c(=NC(=O)c2ccc(C)cc2)sc2c(C)cccc21` (stereo not drawn) [Example 344, 2-(7-methyl-2-((4-methylbenzoyl)imino)benzo[d]thiazol-3(2H)-yl)butanoic acid] here?
**A.** 11.7%

**Q.** And the “Yeast cell proliferation rates KRS-AIMP2 (%)” value [2]?
**A.** 99.0%

**Q.** And the “Yeast cell proliferation rates KRS-AIMP3 (%)” value [3]?
**A.** 102.8%

**Q.** What does the source list for `Cc1cccc2c1sc(=NC(=O)c1cccc(Cl)c1)n2C(C)C(=O)O` (stereo not drawn) [Example 353, 2-(2-((3-chlorobenzoyl)imino)-7-methylbenzo[d]thiazol-3(2H)-yl)propionic acid]?
**A.** Yeast cell proliferation rates KRS-LR (%) [1]: 28.2%; Yeast cell proliferation rates KRS-AIMP2 (%) [2]: 89.4%; Yeast cell proliferation rates KRS-AIMP3 (%) [3]: 99.5%

**Q.** With `CC(C(=O)O)n1c(=NC(=O)c2cccc(Cl)c2)sc2c(F)c(F)ccc21` (stereo not drawn) [Example 337, 2-(2-((3-chlorobenzoyl)imino)-6,7-difluorobenzo[d]thiazol-3(2H)-yl)propionic acid] as the compound, how does the “Yeast cell proliferation rates KRS-LR (%)” value [1] read?
**A.** 12.3%

**Q.** And the “Yeast cell proliferation rates KRS-AIMP2 (%)” value [2]?
**A.** 92.5%

**Q.** What about the “Yeast cell proliferation rates KRS-AIMP3 (%)” value [3] of the same compound?
**A.** 100.3%

**Q.** How did the “Yeast cell proliferation rates KRS-LR (%)” value [1] turn out when `CCC(C(=O)O)n1c(=NC(=O)c2ccc(OC)cc2)sc2c(F)cccc21` (stereo not drawn) [Example 533] was run?
**A.** 39.0%

**Q.** What about the “Yeast cell proliferation rates KRS-AIMP2 (%)” value [2] of the same compound?
**A.** 94.8%

**Q.** What about the “Yeast cell proliferation rates KRS-AIMP3 (%)” value [3] of the same compound?
**A.** 98.3%
